Test results as given in the NIST ThermoML archive (doi:10.1021/je7001946).
Numbers after ± are expanded uncertainties.

Columns and labels:
[1] = 101.3 kPa, Liquid
[2] = mn = molality of the nth substance listed, in mol/kg; details: 101.3 kPa, Liquid; for speed of sound: Pulse-echo method

CC#N [acetonitrile]
[1]
Details	mass density
288.15 K	787.303 ± 0.59 kg/m3 [middle of 5 runs]
293.15 K	781.923 ± 0.61 kg/m3 [middle of 5 runs]
298.15 K	776.525 ± 0.61 kg/m3 [middle of 5 runs]
303.15 K	771.097 ± 0.62 kg/m3 [middle of 5 runs]
308.15 K	765.64 ± 0.62 kg/m3 [middle of 5 runs]
313.15 K	760.151 ± 0.62 kg/m3 [middle of 5 runs]
323.15 K	749.07 ± 0.65 kg/m3 [middle of 5 runs]

Details	speed of sound [m/s]
[1], 298.15 K, Pulse-echo method	1278.3 ± 1.2

CC#N [acetonitrile] + [Br-].[Br-].[Mn+2]
[2], m2 = 0
Details	mass density [kg/m3]
288.15 K	787.299 ± 0.6
293.15 K	781.923 ± 0.61
298.15 K	776.525 ± 0.61
303.15 K	771.097 ± 0.62
308.15 K	765.64 ± 0.62
313.15 K	760.148 ± 0.63
323.15 K	749.055 ± 0.65

CC#N [acetonitrile] + [Br-].[Br-].[Zn+2]
[2], m2 = 0
Details	mass density [kg/m3]
288.15 K	787.313 ± 0.6
293.15 K	781.935 ± 0.6
298.15 K	776.535 ± 0.61
303.15 K	771.106 ± 0.62
308.15 K	765.65 ± 0.62
313.15 K	760.159 ± 0.63
323.15 K	749.07 ± 0.65

CC#N [acetonitrile] + [Br][Co][Br]
[2], m2 = 0
Details	mass density [kg/m3]	speed of sound [m/s]
288.15 K	787.315 ± 0.6	–
293.15 K	781.939 ± 0.61	–
298.15 K	776.538 ± 0.61	1278.3 ± 1.2
303.15 K	771.112 ± 0.62	–
308.15 K	765.653 ± 0.63	–
313.15 K	760.164 ± 0.63	–
323.15 K	749.073 ± 0.65	–

CC#N [acetonitrile] + [Cl-].[Cl-].[Zn+2]
[2], m2 = 0
Details	mass density [kg/m3]
288.15 K	787.303 ± 0.59
293.15 K	781.922 ± 0.59
298.15 K	776.522 ± 0.6
303.15 K	771.095 ± 0.61
308.15 K	765.637 ± 0.61
313.15 K	760.151 ± 0.62
323.15 K	749.071 ± 0.63

CC#N [acetonitrile] + [Cl][Co][Cl]
[2], m2 = 0
Details	mass density [kg/m3]
288.15 K	787.297 ± 0.59
293.15 K	781.919 ± 0.59
298.15 K	776.518 ± 0.6
303.15 K	771.09 ± 0.61
308.15 K	765.631 ± 0.61
313.15 K	760.142 ± 0.62
323.15 K	749.056 ± 0.63

[Cl][Co][Cl] [cobalt chloride] + CC#N
[2]
Details	mass density, 288.15 K [kg/m3]	mass density, 293.15 K [kg/m3]	mass density, 298.15 K [kg/m3]	mass density, 303.15 K [kg/m3]	mass density, 308.15 K [kg/m3]	mass density, 313.15 K [kg/m3]	mass density, 323.15 K [kg/m3]	speed of sound, 298.15 K [m/s]
m1 = 0.08764	795.418 ± 0.58	790.014 ± 0.58	784.59 ± 0.59	779.137 ± 0.6	773.654 ± 0.6	768.139 ± 0.61	756.997 ± 0.62	1279.8 ± 1.2
m1 = 0.1171	798.185 ± 0.57	792.779 ± 0.58	787.348 ± 0.59	781.889 ± 0.59	776.401 ± 0.6	770.881 ± 0.61	759.736 ± 0.62	1280.5 ± 1.2
m1 = 0.146	800.89 ± 0.57	795.475 ± 0.58	790.038 ± 0.58	784.571 ± 0.59	779.078 ± 0.6	773.545 ± 0.6	762.939 ± 0.62	1281.1 ± 1.2
m1 = 0.1743	803.599 ± 0.57	798.184 ± 0.57	792.742 ± 0.58	787.274 ± 0.59	781.773 ± 0.59	776.24 ± 0.6	765.073 ± 0.61	1281.8 ± 1.2
m1 = 0.2031	806.356 ± 0.56	800.934 ± 0.57	795.487 ± 0.58	790.011 ± 0.58	784.51 ± 0.59	778.973 ± 0.6	767.796 ± 0.61	1282.5 ± 1.2
m1 = 0.2318	809.121 ± 0.56	803.697 ± 0.57	798.244 ± 0.57	792.763 ± 0.58	787.256 ± 0.59	781.714 ± 0.59	770.528 ± 0.61	1283.2 ± 1.2
m1 = 0.26	811.836 ± 0.56	806.407 ± 0.56	800.953 ± 0.57	795.467 ± 0.58	789.954 ± 0.58	784.407 ± 0.59	773.206 ± 0.6	1284 ± 1.2
m1 = 0.2873	814.493 ± 0.55	809.058 ± 0.56	803.595 ± 0.57	798.109 ± 0.57	792.59 ± 0.58	787.039 ± 0.59	775.843 ± 0.6	1284.8 ± 1.2

[Cl-].[Cl-].[Zn+2] [zinc chloride] + CC#N
mass density [kg/m3], [2]
Details	m1 = 0.05257	m1 = 0.06571	m1 = 0.07576	m1 = 0.08438	m1 = 0.1077	m1 = 0.128	m1 = 0.1487	m1 = 0.1684	m1 = 0.1902	m1 = 0.2114
288.15 K	791.935 ± 0.58	793.095 ± 0.58	794 ± 0.58	794.764 ± 0.58	796.85 ± 0.57	798.676 ± 0.57	800.536 ± 0.57	802.335 ± 0.57	804.302 ± 0.56	806.244 ± 0.56
293.15 K	786.551 ± 0.59	787.712 ± 0.59	788.618 ± 0.58	789.38 ± 0.58	791.469 ± 0.58	793.289 ± 0.58	795.155 ± 0.58	796.955 ± 0.57	798.922 ± 0.57	800.862 ± 0.57
298.15 K	781.15 ± 0.59	782.313 ± 0.59	783.217 ± 0.59	783.985 ± 0.59	786.068 ± 0.59	787.887 ± 0.58	789.746 ± 0.58	791.541 ± 0.58	793.519 ± 0.58	795.456 ± 0.58
303.15 K	775.724 ± 0.6	776.886 ± 0.6	777.79 ± 0.6	778.553 ± 0.6	780.64 ± 0.59	782.455 ± 0.59	784.317 ± 0.59	786.115 ± 0.59	788.091 ± 0.58	790.032 ± 0.58
308.15 K	770.266 ± 0.61	771.431 ± 0.61	772.33 ± 0.6	773.096 ± 0.6	775.184 ± 0.6	777.003 ± 0.6	778.858 ± 0.6	780.661 ± 0.59	782.635 ± 0.59	784.575 ± 0.59
313.15 K	764.781 ± 0.61	765.94 ± 0.61	766.841 ± 0.61	767.607 ± 0.61	769.697 ± 0.61	771.516 ± 0.61	773.372 ± 0.6	775.165 ± 0.6	777.148 ± 0.6	779.089 ± 0.6
323.15 K	753.694 ± 0.63	754.859 ± 0.63	755.76 ± 0.62	756.526 ± 0.62	758.618 ± 0.62	760.435 ± 0.62	762.295 ± 0.62	764.103 ± 0.61	766.072 ± 0.61	768.014 ± 0.61
